{"source": "BindingDB's records for doi:10.1021/ml100146z", "about": "(2010)", "target": "Signal transducer and activator of transcription 3 (Homo sapiens, UniProt P40763)", "sequence (P40763 whole entry)": "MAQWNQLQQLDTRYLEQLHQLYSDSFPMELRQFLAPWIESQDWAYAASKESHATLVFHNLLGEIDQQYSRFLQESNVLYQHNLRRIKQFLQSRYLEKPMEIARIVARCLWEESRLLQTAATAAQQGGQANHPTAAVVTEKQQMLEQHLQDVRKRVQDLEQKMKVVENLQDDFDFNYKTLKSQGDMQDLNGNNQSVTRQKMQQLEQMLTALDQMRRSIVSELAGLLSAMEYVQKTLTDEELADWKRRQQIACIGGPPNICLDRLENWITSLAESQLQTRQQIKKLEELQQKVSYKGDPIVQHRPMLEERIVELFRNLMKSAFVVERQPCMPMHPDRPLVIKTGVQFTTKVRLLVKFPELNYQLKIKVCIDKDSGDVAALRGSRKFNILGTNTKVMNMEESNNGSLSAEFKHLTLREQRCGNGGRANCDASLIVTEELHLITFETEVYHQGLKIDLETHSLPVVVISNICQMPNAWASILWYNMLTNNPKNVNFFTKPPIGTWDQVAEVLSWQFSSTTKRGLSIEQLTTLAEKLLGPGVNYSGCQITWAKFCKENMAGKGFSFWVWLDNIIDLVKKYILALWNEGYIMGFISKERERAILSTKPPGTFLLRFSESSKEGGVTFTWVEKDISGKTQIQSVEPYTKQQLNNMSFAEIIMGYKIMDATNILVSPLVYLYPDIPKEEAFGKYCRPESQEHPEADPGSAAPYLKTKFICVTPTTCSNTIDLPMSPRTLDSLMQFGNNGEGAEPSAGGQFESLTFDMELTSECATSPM", "assay": "Inhibition of STAT3 in human HeLa cells after 24 hrs by luciferase reporter gene assay"}
{"compound": "O=C(Nc1ccc([N+](=O)[O-])cc1Cl)c1cc(Cl)ccc1O", "note": "[5-chloro-N-(2-chloro-4-nitrophenyl)-2-hydroxybenzamide]", "values": [{"measurement": "IC50", "result": 250, "unit": "nM"}]}
